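Results reflect a 48-hour exposure of cells in 96-well plates to compound at five concentrations. TGI is the concentration that stops growth completely.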
Legend:
Test in all cases: NCI-60 cell line screen, 48 h
[1] = test system: HCC-2998 colon
[2] = test system: NCI-H522 lung
[3] = test system: NCI-H460 lung
[4] = test system: SF-268 CNS
[5] = test system: IGROV1 ovarian
[6] = test system: CCRF-CEM leukemia
[7] = test system: NCI-H226 lung
[8] = test system: OVCAR-8 ovarian
[9] = test system: OVCAR-3 ovarian
[10] = test system: LOX IMVI melanoma
[11] = test system: MDA-MB-435
[12] = test system: SK-MEL-2 melanoma
[13] = test system: NCI/ADR-RES ovarian

Row | Structure (SMILES) | TGI [1] | TGI [2] | TGI [3] | TGI [4] | TGI [5] | TGI [6] | TGI [7] | TGI [8] | TGI [9] | TGI [10] | TGI [11] | TGI [12] | TGI [13]
1 | Clc1ccc(CCN[C@H]2CCCC[C@H]2N2CCCC2)cc1Cl | 22.3 µM | 32.9 µM | 58.4 µM | > 100 µM | 35.1 µM | > 100 µM | 48.7 µM | > 100 µM | 65.2 µM | 32.4 µM | 43.8 µM | 44.1 µM | > 100 µM
2 | CC1=C(O)c2ccccc2C(=O)C1=O | > 100 µM | > 100 µM | > 100 µM | > 100 µM | > 100 µM | > 100 µM | > 100 µM | > 100 µM | > 100 µM | > 100 µM | > 100 µM | > 100 µM | > 100 µM
3 | COc1ccc(OC)c2c1C=CC(Br)=CC2 | 0.449 µM | 0.579 µM | > 1 µM | > 1 µM | > 1 µM | > 1 µM | > 1 µM | > 1 µM | > 1 µM | 0.302 µM | 0.853 µM | 0.247 µM | > 1 µM
4 | OC(CN(CCCl)CCCl)C(O)C(O)C(O)CN(CCCl)CCCl (stereo not drawn) | > 100 µM | > 100 µM | > 100 µM | > 100 µM | > 100 µM | > 100 µM | > 100 µM | > 100 µM | > 100 µM | > 100 µM | > 100 µM | > 100 µM | > 100 µM
5 | CC(C)=CCC[C@@H](C)C1=C(O)C(Nc2ccccc2Cl)=C(C)C(=O)C1=O | > 56.6 µM | 22.7 µM | > 75 µM | > 75 µM | 46.5 µM | > 21.3 µM | 29.3 µM | > 41 µM | > 75 µM | > 75 µM | > 75 µM | 46.7 µM | 11.9 µM
6 | CCCCc1ccc(Nc2nc(OC)c3ncn(C4CC(O)C(CO)O4)c3n2)cc1 (stereo not drawn) | 20.4 µM | 3.83 µM | 32.9 µM | 34.5 µM | 27.2 µM | 34.9 µM | 44.5 µM | 35.2 µM | 54.3 µM | 31.4 µM | 36.6 µM | 47.5 µM | 65.6 µM

Reference: PubChem BioAssay (NCI)
